From US11370761B2, “Voltage-dependent T-type calcium channel inhibitor” (Nippon Chemiphar Co., Ltd., priority 2017, dated 2022) come the findings set out here.

Counter-ions that a name gives are not always drawn.

The target of the assay is T1, human Cav3.2 channel (Homo sapiens, UniProt O95180).
T1 construct: expressed in transfected cells
T1 sequence (O95180 whole entry): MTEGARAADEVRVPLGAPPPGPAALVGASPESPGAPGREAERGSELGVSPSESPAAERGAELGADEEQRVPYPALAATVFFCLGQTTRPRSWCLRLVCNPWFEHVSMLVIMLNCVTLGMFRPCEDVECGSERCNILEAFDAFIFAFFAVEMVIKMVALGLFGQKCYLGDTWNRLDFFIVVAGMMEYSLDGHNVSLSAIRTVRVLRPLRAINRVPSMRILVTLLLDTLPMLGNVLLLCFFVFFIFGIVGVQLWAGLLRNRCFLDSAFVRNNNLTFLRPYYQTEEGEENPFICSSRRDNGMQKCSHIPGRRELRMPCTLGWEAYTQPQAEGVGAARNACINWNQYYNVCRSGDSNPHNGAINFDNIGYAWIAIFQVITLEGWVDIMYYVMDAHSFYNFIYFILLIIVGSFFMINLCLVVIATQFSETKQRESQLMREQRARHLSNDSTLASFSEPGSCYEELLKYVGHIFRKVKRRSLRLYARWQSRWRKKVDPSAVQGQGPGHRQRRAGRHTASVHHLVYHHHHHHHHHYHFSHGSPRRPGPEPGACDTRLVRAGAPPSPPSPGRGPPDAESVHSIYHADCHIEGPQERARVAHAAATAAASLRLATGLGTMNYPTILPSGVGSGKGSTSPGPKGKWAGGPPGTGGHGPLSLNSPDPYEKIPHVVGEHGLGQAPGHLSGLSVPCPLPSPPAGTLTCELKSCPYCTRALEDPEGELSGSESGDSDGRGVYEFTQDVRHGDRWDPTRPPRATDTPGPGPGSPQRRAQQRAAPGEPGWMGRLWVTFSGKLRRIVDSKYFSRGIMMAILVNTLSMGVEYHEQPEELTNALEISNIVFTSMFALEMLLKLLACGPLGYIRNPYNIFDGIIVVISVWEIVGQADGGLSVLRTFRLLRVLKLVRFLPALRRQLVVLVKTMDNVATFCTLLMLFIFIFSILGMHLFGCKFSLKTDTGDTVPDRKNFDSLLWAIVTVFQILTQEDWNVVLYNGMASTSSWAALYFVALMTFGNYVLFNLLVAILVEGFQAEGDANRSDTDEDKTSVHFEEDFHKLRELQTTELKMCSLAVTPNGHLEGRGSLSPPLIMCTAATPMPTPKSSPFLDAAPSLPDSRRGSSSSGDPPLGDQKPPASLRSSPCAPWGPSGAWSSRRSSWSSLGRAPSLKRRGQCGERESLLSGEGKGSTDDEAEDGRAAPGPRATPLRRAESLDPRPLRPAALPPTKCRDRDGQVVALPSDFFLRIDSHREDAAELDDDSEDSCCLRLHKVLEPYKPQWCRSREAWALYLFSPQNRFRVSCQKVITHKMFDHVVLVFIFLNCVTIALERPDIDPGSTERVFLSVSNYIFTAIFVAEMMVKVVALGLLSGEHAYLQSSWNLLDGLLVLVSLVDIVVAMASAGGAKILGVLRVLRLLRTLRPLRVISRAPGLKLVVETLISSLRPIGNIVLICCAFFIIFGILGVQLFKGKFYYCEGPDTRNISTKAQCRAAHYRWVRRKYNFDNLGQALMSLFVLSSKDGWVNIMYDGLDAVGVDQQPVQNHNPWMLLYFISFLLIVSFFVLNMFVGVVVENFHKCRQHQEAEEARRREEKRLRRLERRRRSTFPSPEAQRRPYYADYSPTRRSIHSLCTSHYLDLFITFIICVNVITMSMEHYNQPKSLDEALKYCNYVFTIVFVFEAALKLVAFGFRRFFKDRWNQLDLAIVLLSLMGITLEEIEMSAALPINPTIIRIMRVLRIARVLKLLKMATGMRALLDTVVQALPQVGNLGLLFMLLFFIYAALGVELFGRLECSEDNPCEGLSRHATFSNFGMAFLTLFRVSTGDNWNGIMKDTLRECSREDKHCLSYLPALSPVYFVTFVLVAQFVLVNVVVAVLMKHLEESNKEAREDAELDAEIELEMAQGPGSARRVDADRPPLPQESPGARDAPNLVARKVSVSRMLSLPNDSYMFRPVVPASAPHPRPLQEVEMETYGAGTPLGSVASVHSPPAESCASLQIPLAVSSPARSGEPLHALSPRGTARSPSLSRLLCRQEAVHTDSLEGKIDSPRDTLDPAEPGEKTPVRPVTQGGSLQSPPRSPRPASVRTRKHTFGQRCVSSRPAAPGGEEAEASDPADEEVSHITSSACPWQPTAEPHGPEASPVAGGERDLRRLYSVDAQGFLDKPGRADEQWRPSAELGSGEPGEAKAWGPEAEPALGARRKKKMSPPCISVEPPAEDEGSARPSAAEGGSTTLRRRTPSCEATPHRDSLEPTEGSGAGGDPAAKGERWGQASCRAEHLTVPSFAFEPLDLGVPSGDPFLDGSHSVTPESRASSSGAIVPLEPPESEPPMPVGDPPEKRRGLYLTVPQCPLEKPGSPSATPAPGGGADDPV
Put plainly: Intracellular calcium concentration measurement in human Cav3.2 channel expressing stable cell line (Pharmacological Test 1). Type of assay: cell-based. Particulars: HEK293 cells stably expressing human Cav3.2, Fluo-4 AM fluorescence, KCl stimulation; read-out: Cav3.2 channel inhibitory action. The text has this:
(1) Construction of Human Cav3.2 Channel Expressing Stable Cell Line
A sequence in which a HindIII site and a kozak sequence (GCCACC) was provided on a 5′ side of a human Cav3.2 channel open reading frame (ORF) gene and a KpnI site was provided on a 3′ side thereof was incorporated into pcDNA3.1(+) (Thermo Fisher Scientific #V790-20), and the resultant was transfected into a HEK293 cell (ATCC No. CRL-1573) according to a protocol of FuGENE (registered trademark) HD Transfection Reagent (Promega #E2311).
(2) Method of Measuring Intracellular Calcium Concentration
The human Cav3.2 channel expressing stable cell line prepared by the test method (1) was seeded in a 96-well plate using a Dulbecco's modified Eagle's medium (DMEM medium) containing 10% fetal bovine serum (FBS), followed by culturing 37° C. for 48 hours under a 5% CO2 condition. Thereafter, the medium was removed, and each well washed with an A buffer was treated with 80 μL of a fluorescent dye solution containing a liquid mixture of 22 μg of a calcium fluorescent indicator Fluo-4 AM (Dojindo Molecular Technologies, Inc., #F311), 20 μL of dimethyl sulfoxide (DMSO), 1 μL of 10% Pluronic F-127 (Thermo Fisher Scientific #P6866), and 4 mL of the A buffer. After being left to stand for 45 minutes at room temperature under a light shielding condition, the cells were washed with a B buffer. In DMSO having the same final concentration as the test compound as a negative control, and the test compound dissolved in DMSO to have a final concentration of 0.1%, each test compound concentration solution containing the B buffer was added to each well. The cells were left to stand for additional 15 minutes at room temperature under a light shielding condition, and were measured using microplate reader EnVision (PerkinElmer Co., Ltd.) by the following method. First, after measuring background fluorescence in each well, an ionophore was added, and baseline fluorescence was measured. Thereafter, B buffer containing added KCl at a concentration of 83.8 mM was added to each well, and an increase in fluorescence due to calcium influx caused by the stimulation was measured for 10 seconds. Inhibition percentage was calculated from the maximum fluorescence increase value from the baseline, and an IC50 value was calculated by plotting a logarithmic value of the test compound concentration and inhibition activity. The measurement was performed by observing fluorescence of 510 nm emitted when the cells were irradiated with excitation light of 485 nm.
A buffer: 140 mM NaCl, 5 mM KCl, 1 mM MgCl2, 0.5 mM CaCl2, 10 mM Glucose, 10 mM HEPES, pH 7.3
B buffer: potassium equilibrium potential: −92 mV
On the technique in general: Calcium assays in cells follow changes in intracellular calcium, usually with a dye or a luminescent sensor.
Regarding `CC(C)Oc1ccc(NC(=O)C(C)NC(=O)C2CC2c2nc3ccccc3[nH]2)cc1` (stereo not drawn) [Example 3, Trans-2-(1H-benzo[d]imidazol-2-yl)-N-(1-((4-isopropoxyphenyl)amino)-1-oxopropan-2-yl) cyclopropane-1-carboxamide], the IC50 was in the range of 1000 to 10000 nM.
The same measure for `CCCc1ccc(NC(=O)C(C)NC(=O)C2CC2c2nc3ccccc3[nH]2)cc1` (single isomer, unassigned) [Example 2B, Trans-2-(1H-benzo[d]imidazol-2-yl)-N-(1-oxo-1-((4-propylphenyl)amino)propan-2-yl) cyclopropane-1-carboxamide]: > 10000 nM.
For `CC(NC(=O)C1CC1c1nc2ccccc2[nH]1)C(=O)Nc1ccc(Cl)cc1` (single isomer, unassigned) [Example 16A, Trans-2-(1H-benzo[d]imidazol-2-yl)-N-(1-((4-chlorophenyl)amino)-1-oxopropan-2-yl) cyclopropane-1-carboxamide], the IC50 lay within 100 to 1000 nM.
With `CC(NC(=O)C1CC1c1nc2ccccc2[nH]1)C(=O)NC1CCN(C(=O)OC(C)(C)C)CC1` (stereo not drawn) [Example 11, tert-Butyl trans-4-(2-(2-(1H-benzo[d]imidazol-2-yl)cyclopropane-1-carboxamido)propanamido)piperidine-1-carboxylate] the figure was 1000 to 10000 nM; with `CC(NC(=O)C1CC1c1nc2ccccc2[nH]1)C(=O)Nc1ccc(C#N)cc1` (single isomer, unassigned) [Example 6B, Trans-2-(1H-benzo[d]imidazol-2-yl)-N-(1-((4-cyanophenyl)amino)-1-oxopropan-2-yl) cyclopropane-1-carboxamide], 1000 to 10000 nM; with `CC(NC(=O)C1CC1c1nc2ccccc2[nH]1)C(=O)NCc1ccc(S(C)(=O)=O)cc1` (stereo not drawn) [Example 9, Trans-2-(1H-benzo[d]imidazol-2-yl)-N-(1-((4-(methylsulfonyl)benzyl)amino)-1-oxopropan-2-yl) cyclopropane-1-carboxamide], > 10000 nM.
As for `CC(NC(=O)C1CC1c1nc2ccccc2[nH]1)C(=O)Nc1ccc(C(F)(F)F)nc1` (single isomer, unassigned) [Example 5B, Trans-2-(1H-benzo[d]imidazol-2-yl)-N-(1-oxo-1-((6-(trifluoromethyl)pyridin-3-yl)amino)propan-2-yl) cyclopropane-1-carboxamide], the IC50 was 100 to 1000 nM.
The same measure for `O=C(Nc1ccc(C(F)(F)F)cc1)C1CCCN1C(=O)C1CC1c1nc2ccccc2[nH]1` (single isomer, unassigned) [Example 19A, Trans-1-(2-(1H-benzo[d]imidazol-2-yl)cyclopropane-1-carbonyl)-N-(4-(trifluoromethyl)phenyl)pyrrolidine-2-carboxamide]: 1000 to 10000 nM.
With `O=C(NC1CCN(c2ccc(C(F)(F)F)cc2)C1=O)[C@H]1C[C@@H]1c1nc2ccccc2[nH]1` (single isomer, unassigned) [Example 23A] the figure was 1000 to 10000 nM; with `O=C(NC1(C(=O)Nc2cccc(C(F)(F)F)c2)CCC1)[C@H]1C[C@@H]1c1nc2ccccc2[nH]1` [Example 36, 1-((1S, 2S)-2-(1H-Benzo[d]imidazol-2-yl)cyclopropane-1-carboxamido)-N-(3-(trifluoromethyl)phenyl) cyclobutane-1-carboxamide], ≤ 100 nM; with `O=C(NC1(C(=O)Nc2cccc(OC(F)(F)F)c2)CC1)[C@H]1C[C@@H]1c1nc2ccccc2[nH]1` [Example 43, 1-((1S, 2S)-2-(1H-Benzo[d]imidazol-2-yl)cyclopropane-1-carboxamido)-N-(3-(trifluoromethoxy)phenyl) cyclopropane-1-carboxamide], ≤ 100 nM.
With `CCC(=O)N1CCC(NC(=O)C(C)NC(=O)C2CC2c2nc3ccccc3[nH]2)CC1` (stereo not drawn) [Example 13, Trans-2-(1H-benzo[d]imidazol-2-yl)-N-(1-oxo-1-((1-propionylpiperidin-4-yl)amino)propan-2-yl) cyclopropane-1-carboxamide] the figure was > 10000 nM; with `CC(NC(=O)C1CC1c1nc2ccccc2[nH]1)C(=O)NC1CCNCC1` (stereo not drawn) [Example 12, Trans-2-(1H-benzo[d]imidazol-2-yl)-N-(1-oxo-1-(piperidin-4-ylamino)propan-2-yl) cyclopropane-1-carboxamide hydrochloride], 1000 to 10000 nM.
Regarding `CC(NC(=O)C1CC1c1nc2ccccc2[nH]1)C(=O)NCc1ccc(C(F)(F)F)nc1` (stereo not drawn) [Example 15, Trans-2-(1H-benzo[d]imidazol-2-yl)-N-(1-oxo-1-(((6-(trifluoromethyl)pyridin-3-yl)methyl)amino)propan-2-yl) cyclopropane-1-carboxamide], the IC50 is 1000 to 10000 nM.
The same measure for `CC(NC(=O)C1CC1c1nc2ccccc2[nH]1)C(=O)Nc1cccc(C(F)(F)F)c1` (single isomer, unassigned) [Example 38A, Trans-2-(1H-benzo[d]imidazol-2-yl)-N-(1-oxo-1-((3-(trifluoromethyl)phenyl)amino)propan-2-yl) cyclopropane-1-carboxamide]: ≤ 100 nM; for `CC(NC(=O)C1CC1c1nc2ccccc2[nH]1)C(=O)Nc1cccc(C(F)(F)F)c1` (single isomer, unassigned) [Example 38B, Trans-2-(1H-benzo[d]imidazol-2-yl)-N-(1-oxo-1-((3-(trifluoromethyl)phenyl)amino)propan-2-yl) cyclopropane-1-carboxamide]: ≤ 100 nM; for `CC(C)C[C@@H](NC(=O)[C@H]1C[C@@H]1c1nc2ccccc2[nH]1)C(=O)Nc1cccc(C(F)(F)F)c1` [Example 37, (1S, 2S)-2-(1H-Benzo[d]imidazol-2-yl)-N—((R)-4-methyl-1-oxo-1-((3-(trifluoromethyl)phenyl)amino)pentan-2-yl) cyclopropane-1-carboxamide]: 100 to 1000 nM.
With `CC(NC(=O)C1CC1c1nc2ccccc2[nH]1)C(=O)Nc1ccc(C#N)cc1` (single isomer, unassigned) [Example 6A, Trans-2-(1H-benzo[d]imidazol-2-yl)-N-(1-((4-cyanophenyl)amino)-1-oxopropan-2-yl) cyclopropane-1-carboxamide] the figure was 1000 to 10000 nM; with `O=C(Nc1ccc(C(F)(F)F)cc1)C1CCCN1C(=O)C1CC1c1nc2ccccc2[nH]1` (single isomer, unassigned) [Example 19B, Trans-1-(2-(1H-benzo[d]imidazol-2-yl)cyclopropane-1-carbonyl)-N-(4-(trifluoromethyl)phenyl)pyrrolidine-2-carboxamide], 1000 to 10000 nM; with `CCCc1ccc(NC(=O)C(C)NC(=O)C2CC2c2nc3ccccc3[nH]2)cc1` (single isomer, unassigned) [Example 1B, Trans-2-(1H-benzo[d]imidazol-2-yl)-N-(1-oxo-1-((4-propylphenyl)amino)propan-2-yl) cyclopropane-1-carboxamide], 100 to 1000 nM.
With `CC(NC(=O)C1CC1c1nc2ccccc2[nH]1)C(=O)Nc1cnc(Br)cn1` (single isomer, unassigned) [Example 18B, Trans-2-(1H-benzo[d]imidazol-2-yl)-N-(1-((5-bromopyrazin-2-yl)amino)-1-oxopropan-2-yl) cyclopropane-1-carboxamide], the IC50 is > 10000 nM.
With `O=C(NC1(C(=O)Nc2cc(F)cc(C(F)(F)F)c2)CC1)[C@H]1C[C@@H]1c1nc2ccccc2[nH]1` [Example 42, 1-((1S, 2S)-2-(1H-Benzo[d]imidazol-2-yl)cyclopropane-1-carboxamido)-N-(3-fluoro-5-(trifluoromethyl)phenyl) cyclopropane-1-carboxamide] the figure was 100 to 1000 nM; with `O=C(NC1(C(=O)Nc2ccc(F)c(C(F)(F)F)c2)CC1)[C@H]1C[C@@H]1c1nc2cc(Cl)ccc2[nH]1` [Example 34, 1-((1S, 2S)-2-(5-Chloro-1H-benzo[d]imidazol-2-yl)cyclopropane-1-carboxamido)-N-(4-fluoro-3-(trifluoromethyl)phenyl) cyclopropane-1-carboxamide], ≤ 100 nM; with `CC(NC(=O)C1CC1c1nc2ccccc2[nH]1)C(=O)Nc1ccc(Cl)cc1` (single isomer, unassigned) [Example 16B, Trans-2-(1H-benzo[d]imidazol-2-yl)-N-(1-((4-chlorophenyl)amino)-1-oxopropan-2-yl) cyclopropane-1-carboxamide], 1000 to 10000 nM.
